Measurements from ChEMBL document CHEMBL3885861, “Open TG-GATES”.

Species on record: Rattus norvegicus
Assay: Open TG-GATES - Regimen: Single
Assay type: toxicity, organism-based, Sprague-Dawley
Set-up: regimen Single, gender Male, age 6 weeks
Conditions: in vivo, po, route gavage; for APTT / Bas / Eos / Fbg / Hb / Ht / Lym / MCH / MCHC / MCV / Mono / Neu / PT / Plat / RBC / WBC: tissue Blood; for KIDNEY_L / KIDNEY_R / KIDNEY_TOTAL: tissue Kidney; for LIVER: tissue Liver; for ALT / AST / CRE / Cl / DBIL / GLC / IP / LDH / Na / RALB / TBIL / TC / TG / TP / gamma-GTP / BUN: tissue Plasma
[1] = 0 mg/kg, 3 h, dose level Control
[2] = 0 mg/kg, 6 h, dose level Control
[3] = 0 mg/kg, 9 h, dose level Control
[4] = 0 mg/kg, 24 h, dose level Control
[5] = 20 mg/kg, 3 h, dose level Middle

## CC/C(=C(\c1ccccc1)c1ccc(OCCN(C)C)cc1)c1ccccc1 [TAMOXIFEN]
[1]
  TERMINAL_BW: 194.3 g
  APTT: 16.9 s
  Bas: 0%
  Eos: 0.8%
  Fbg: 248.6 mg/dL
  Hb: 13 g/dL
  Ht: 39.1%
  Lym: 76%
  MCH: 21.6 pg
  MCHC: 33.2%
  MCV: 65.1 fL
  Mono: 3.6%
  Neu: 19.2%
  PT: 12.2 s
  Plat: 123.1 x10_4/uL
  RBC: 601.8 x10_4/ul
  WBC: 87.4 x10_2/uL
  KIDNEY_L: 0.9 g
  KIDNEY_R: 0.8 g
  KIDNEY_TOTAL: 1.7 g
  LIVER: 8.3 g
  ALT: 47.6 IU/L
  AST: 77.6 IU/L
  CRE: 0.2 mg/dL
  Cl: 106.8 meq/L
  DBIL: 0.02 mg/dL
  GLC: 173.6 mg/dL
  IP: 10.2 mg/dL
  LDH: 69.6 IU/L
  Na: 140.8 meq/L
  RALB: 2.6 g/dL
  TBIL: 0.042 mg/dL
  TC: 86.4 mg/dL
  TG: 94.6 mg/dL
  TP: 5.6 g/dL
  gamma-GTP: 1.4 IU/L
[2]
  TERMINAL_BW: 192.7 g
  APTT: 16.1 s
  Bas: 0%
  Eos: 1%
  Fbg: 261.5 mg/dL
  Hb: 13.2 g/dL
  Ht: 39.6%
  Lym: 69.8%
  MCH: 21.8 pg
  MCHC: 33.4%
  MCV: 65.3 fL
  Mono: 3.2%
  Neu: 25.8%
  PT: 12.1 s
  Plat: 118.7 x10_4/uL
  RBC: 607 x10_4/ul
  WBC: 64.1 x10_2/uL
  KIDNEY_L: 0.8 g
  KIDNEY_R: 0.8 g
  KIDNEY_TOTAL: 1.7 g
  LIVER: 7.8 g
  ALT: 37.8 IU/L
  AST: 73 IU/L
  BUN: 9.8 mg/dL
  CRE: 0.2 mg/dL
  Cl: 110.2 meq/L
  DBIL: 0.015 mg/dL
  GLC: 171.2 mg/dL
  IP: 10 mg/dL
  LDH: 52.2 IU/L
  Na: 142.2 meq/L
  RALB: 2.6 g/dL
  TBIL: 0.0425 mg/dL
  TC: 86.5 mg/dL
  TG: 59 mg/dL
  TP: 5.4 g/dL
  gamma-GTP: 1 IU/L
[3]
  TERMINAL_BW: 194.3 g
  APTT: 16.5 s
  Bas: 0%
  Eos: 1%
  Fbg: 259.6 mg/dL
  Hb: 12.8 g/dL
  Ht: 38.4%
  Lym: 75.2%
  MCHC: 33.4%
  MCV: 64 fL
  Mono: 3%
  PT: 12.2 s
  Plat: 111.1 x10_4/uL
  RBC: 599.4 x10_4/ul
  WBC: 73.7 x10_2/uL
  KIDNEY_L: 0.8 g
  KIDNEY_R: 0.8 g
  KIDNEY_TOTAL: 1.6 g
  LIVER: 7.1 g
  ALT: 42.4 IU/L
  AST: 71.8 IU/L
  BUN: 10.2 mg/dL
  CRE: 0.2 mg/dL
  Cl: 107.2 meq/L
  DBIL: 0.012 mg/dL
  GLC: 184.6 mg/dL
  LDH: 50 IU/L
  Na: 142.8 meq/L
  RALB: 2.5 g/dL
  TBIL: 0.05 mg/dL
  TC: 84.6 mg/dL
  TG: 37.4 mg/dL
  TP: 5.3 g/dL
  gamma-GTP: 1.6 IU/L
[4]
  TERMINAL_BW: 200.5 g
  APTT: 15.5 s
  Bas: 0%
  Eos: 1%
  Fbg: 258.4 mg/dL
  Hb: 13 g/dL
  Ht: 38.9%
  Lym: 70.6%
  MCH: 21.5 pg
  MCHC: 33.5%
  MCV: 64.2 fL
  Mono: 4%
  Neu: 24%
  PT: 12.3 s
  Plat: 116.6 x10_4/uL
  RBC: 605.8 x10_4/ul
  WBC: 89.9 x10_2/uL
  KIDNEY_L: 0.9 g
  KIDNEY_R: 0.9 g
  KIDNEY_TOTAL: 1.8 g
  LIVER: 9.1 g
  ALT: 51.8 IU/L
  AST: 76.2 IU/L
  BUN: 14.6 mg/dL
  CRE: 0.2 mg/dL
  Cl: 107.2 meq/L
  DBIL: 0.012 mg/dL
  GLC: 183.8 mg/dL
  IP: 7.8 mg/dL
  LDH: 69 IU/L
  Na: 142.4 meq/L
  RALB: 2.6 g/dL
  TBIL: 0.034 mg/dL
  TC: 93.2 mg/dL
  TG: 83 mg/dL
  TP: 5.5 g/dL
  gamma-GTP: 1 IU/L
6 mg/kg, 3 h, dose level Low
  TERMINAL_BW: 191.8 g
  Bas: 0%
  Eos: 1%
  Fbg: 247 mg/dL
  Hb: 13.1 g/dL
  Ht: 39.6%
  Lym: 78.4%
  MCHC: 33.1%
  MCV: 64.6 fL
  Mono: 3.4%
  Neu: 16.6%
  PT: 12 s
  Plat: 122.7 x10_4/uL
  RBC: 612.6 x10_4/ul
  WBC: 83.4 x10_2/uL
  KIDNEY_L: 0.8 g
  KIDNEY_R: 0.9 g
  KIDNEY_TOTAL: 1.7 g
  LIVER: 8.4 g
  ALT: 50.6 IU/L
  AST: 81.2 IU/L
  BUN: 11.2 mg/dL
  CRE: 0.2 mg/dL
  Cl: 107.6 meq/L
  DBIL: 0.032 mg/dL
  GLC: 173.4 mg/dL
  IP: 8.9 mg/dL
  LDH: 58.2 IU/L
  Na: 140.4 meq/L
  RALB: 2.6 g/dL
  TBIL: 0.046 mg/dL
  TC: 80.8 mg/dL
  TG: 113.6 mg/dL
  TP: 5.6 g/dL
  gamma-GTP: 1 IU/L
6 mg/kg, 6 h, dose level Low
  TERMINAL_BW: 195.3 g
  Bas: 0%
  Eos: 1%
  Fbg: 258.6 mg/dL
  Hb: 13.1 g/dL
  Ht: 39.6%
  Lym: 77.4%
  MCH: 21.6 pg
  MCHC: 33.2%
  MCV: 65.1 fL
  Mono: 3.2%
  Neu: 18%
  PT: 12.1 s
  Plat: 120.4 x10_4/uL
  RBC: 608.2 x10_4/ul
  WBC: 67.4 x10_2/uL
  KIDNEY_L: 0.9 g
  KIDNEY_R: 0.9 g
  KIDNEY_TOTAL: 1.7 g
  LIVER: 8.2 g
  ALT: 41 IU/L
  AST: 77 IU/L
  BUN: 8.2 mg/dL
  CRE: 0.1 mg/dL
  Cl: 108.2 meq/L
  DBIL: 0.014 mg/dL
  GLC: 180.2 mg/dL
  IP: 10.9 mg/dL
  LDH: 93.6 IU/L
  Na: 141.6 meq/L
  RALB: 2.5 g/dL
  TBIL: 0.05 mg/dL
  TC: 81.4 mg/dL
  TG: 46.6 mg/dL
  TP: 5.4 g/dL
  gamma-GTP: 1.4 IU/L
6 mg/kg, 9 h, dose level Low
  TERMINAL_BW: 191.5 g
  APTT: 16 s
  Bas: 0%
  Eos: 1%
  Fbg: 248.8 mg/dL
  Hb: 12.8 g/dL
  Lym: 68.8%
  MCH: 21.5 pg
  MCHC: 33.5%
  MCV: 64.3 fL
  Mono: 2.6%
  Neu: 27.2%
  PT: 12.5 s
  Plat: 116.1 x10_4/uL
  RBC: 597.4 x10_4/ul
  WBC: 68.7 x10_2/uL
  KIDNEY_L: 0.8 g
  KIDNEY_R: 0.8 g
  KIDNEY_TOTAL: 1.6 g
  LIVER: 7.1 g
  ALT: 39 IU/L
  AST: 77.2 IU/L
  BUN: 9.6 mg/dL
  CRE: 0.2 mg/dL
  Cl: 108.2 meq/L
  DBIL: 0.01 mg/dL
  GLC: 186.6 mg/dL
  IP: 11 mg/dL
  LDH: 62.4 IU/L
  Na: 143.6 meq/L
  RALB: 2.5 g/dL
  TBIL: 0.046 mg/dL
  TC: 67.2 mg/dL
  TG: 33.4 mg/dL
  TP: 5.3 g/dL
  gamma-GTP: 1 IU/L
6 mg/kg, 24 h, dose level Low
  TERMINAL_BW: 194.3 g
  APTT: 17.4 s
  Bas: 0%
  Eos: 1.2%
  Fbg: 250.2 mg/dL
  Hb: 12.8 g/dL
  Ht: 38.6%
  Lym: 79%
  MCH: 20.9 pg
  MCHC: 33.2%
  MCV: 62.9 fL
  Mono: 3.2%
  Neu: 16.4%
  PT: 12.8 s
  Plat: 113.7 x10_4/uL
  RBC: 613.8 x10_4/ul
  WBC: 80.8 x10_2/uL
  KIDNEY_L: 0.9 g
  KIDNEY_R: 0.9 g
  KIDNEY_TOTAL: 1.7 g
  LIVER: 8.7 g
  ALT: 51 IU/L
  AST: 79.8 IU/L
  BUN: 12.8 mg/dL
  CRE: 0.2 mg/dL
  Cl: 108 meq/L
  DBIL: 0.012 mg/dL
  GLC: 184.4 mg/dL
  IP: 8 mg/dL
  LDH: 55.2 IU/L
  Na: 142.4 meq/L
  RALB: 2.5 g/dL
  TBIL: 0.036 mg/dL
  TC: 61.6 mg/dL
  TG: 64.2 mg/dL
  TP: 5.4 g/dL
  gamma-GTP: 1.4 IU/L
[5]
  TERMINAL_BW: 194.9 g
  APTT: 16.5 s
  Bas: 0.2%
